We go through eleven substances from patent US7795222B2, “Methods for treating a corneal disorder and promoting skin wound healing” (Santen Pharmaceutical Co., Ltd., priority 2001, dated 2010).

This experiment has as its system corneal epithelium. Put plainly: Action for extending corneal epithelium (in vitro), corneal blocks in tissue culture. The class given is cell-based, male Japanese White rabbit. As to conditions: for influence on the extension of corneal epithelium: peptide alone; for Extension ratio (%): 24 hours culture, control = 100%, mean of six sections; for activity in corneal epithelium extension test: in combination with substance P. Here is the method:
(1) Action For Extending Corneal Epithelium (In Vitro)
Using the cornea of a male Japanese White rabbit and according to the method of Nishida et al. (J. Cell Biol., 97, 1653-1657 (1983)), the length of corneal epithelium extension of the corneal section in a tissue culture system was used as a marker to examine the influence on corneal epithelium extension.
Corneal blocks cut off from rabbit corneal section (6 blocks per group) were cultured in culture media (TC-199) containing a test compound under conditions of 5% CO2 at 37° C. for 24 hours. After culturing, the corneal blocks were fixed in a mix solution of ethanol-glacial acetic acid (volume ratio: 95:5) and then embedded in paraffin to prepare sections. After paraffin was removed from the sections, the resulting sections were stained with hematoxylin-eosin to examine the extended length of the corneal epithelial cell layer with a microscope. As a control, the blocks cultured in the same manner in the culture media without any test compound were used.
Herein, the extension ratio in the table is the mean of six sections per group, as calculated when the elongated length of the control group was defined as the basal line (100%).

Where [1] appears, read: test peptide 1 nM + substance P (20 μM).

Where no end group is shown, it is not given here.

For “Phe-Gly-Leu-Met-NH2 (FGLM-NH2) [tetrapeptide on the C terminal of substance P, reference compound]”, the “influence on the extension of corneal epithelium” value was “not observed to have any influence”. The “Extension ratio (%)” value (test peptide alone, 20 μM) came out at 99%.

Regarding Ser-Ser-Ser-Arg (SSSR; Human), the “Extension ratio (%)” value came to 145% (test peptide 1 nM + FGLM (20 μM)); 138% under setting [1]; 101% (test peptide alone, 1 nM).

As for “GYGSSSRRAPQT (Human) [Gly-Tyr-Gly-Ser-Ser-Ser-Arg-Arg-Ala-Pro-Gln-Thr, the peptide composing the domain C of IGF-I]”, the “activity in corneal epithelium extension test” value is recorded as “had the activity”. The “Extension ratio (%)” value under setting [1] is recorded as 134%. The “Extension ratio (%)” value (test peptide alone, 1 nM) was 104%.

On to Gly-Ser-Ser-Ser-Arg (GSSSR; Human), for which the “Extension ratio (%)” value reads like this: under setting [1], 135%; (test peptide alone, 1 nM) 101%.

In the case of “GSSSRAAAP (Human) [Gly-Ser-Ser-Ser-Arg-Ala-Ala-Ala-Pro]”, the “Extension ratio (%)” value is 139% under setting [1] and 100% (test peptide alone, 1 nM).

Take “ASSSRRAP (Human) [Ala-Ser-Ser-Ser-Arg-Arg-Ala-Pro]”: the “Extension ratio (%)” value under setting [1] worked out at 134%.

“GSSSRAAP (Human) [Gly-Ser-Ser-Ser-Arg-Ala-Ala-Pro]”: the “Extension ratio (%)” value under setting [1] amounted to 150%.

For the substance GSSSRR, the “Extension ratio (%)” value turned out to be 142% under setting [1] and 94% (test peptide alone, 1 nM).

“Substance P: polypeptide consisting of 11 amino acids (RPKPQQFFGLM-NH2; ends and bridges not checked; UniProt P20366 58-68, looked up) [reference compound]”: the “influence on the extension of corneal epithelium” value is reported as “not observed to have any influence”. Besides, the “Extension ratio (%)” value (test peptide alone, 20 μM) is recorded as 94%.

With “GSSSRRAP (Human) [Gly-Ser-Ser-Ser-Arg-Arg-Ala-Pro]”, the “activity in corneal epithelium extension test” value is “the activity still remained”. In addition, the “Extension ratio (%)” value under setting [1] came to 140%. In addition, the “Extension ratio (%)” value (test peptide alone, 1 nM) was determined as 97%.

In the case of Ser-Ser-Ser-Arg-Arg (SSSRR; Human), the “Extension ratio (%)” value under setting [1] was 136% and the “Extension ratio (%)” value (test peptide alone, 1 nM) came to 98%.
